Source: US7767717B2 (priority 2003, dated 2010)
Read-outs that look alike come from different tables or passages of the source.

Experiments:
[1] = cutaneous [^3H]-4-hydroxy tamoxifen delivery in breast cancer patients: radioactivity in breast tissue, blood, urine; conditions: for share of radioactivity in blood: 24 hours after cutaneous 4-hydroxy tamoxifen
Method: (§1) The patients received [^3H]-labeled drug applied directly on the affected breasts at specified intervals ranging from 12 hours to 7 days before surgery to excise diseased tissue. Breast tissue from three regions: the tumor, tissue immediately surrounding the tumor, and normal tissue, was excised and immediately frozen in liquid nitrogen. Additionally, plasma and urine samples were obtained at scheduled intervals and frozen until analysis.

[2] = human, in vivo
Method: as §1

[3] = pharmacokinetics of topically applied 4-hydroxy tamoxifen gel in healthy premenopausal women; type: in vivo, human; conditions: last administration, day 25 of second cycle; for t1/2: range
Method: Each participant applied the gel daily for the duration of two menstrual cycles.
At the end of a menstrual cycle, each patient received a single dose, after which serial blood samples were collected at 0, 0.5, 1, 1.5, 2, 3, 4, 6, 12, 18, 24, 36, 48, and 72 hours.
On the first day of the following menstruation, treatment, which consisted of daily application of the gel over two menstrual cycles, began. Blood samples were collected 24 hours following the morning application of gel on days 7, 20 and 25 of the first and second cycles. On the last day of administration, day 25 of the second menstrual cycle, serial blood samples were collected prior to application and at 0.5, 1, 1.5, 2, 3, 4, 6, 12, 18, 24, 36, 48, and 72 hours after application of the gel.

[4] = human, in vivo; cited from earlier work
[5] = topical application
[6] = cited from earlier work
estrone sulphatase = target: T1, estrone sulphatase (Homo sapiens, UniProt P08842); conditions: mammary cancer cell lines; cited from earlier work
T1 construct: estrone sulphatase activity in mammary cancer cell lines; endogenous in cells
T1 sequence (P08842 22-583): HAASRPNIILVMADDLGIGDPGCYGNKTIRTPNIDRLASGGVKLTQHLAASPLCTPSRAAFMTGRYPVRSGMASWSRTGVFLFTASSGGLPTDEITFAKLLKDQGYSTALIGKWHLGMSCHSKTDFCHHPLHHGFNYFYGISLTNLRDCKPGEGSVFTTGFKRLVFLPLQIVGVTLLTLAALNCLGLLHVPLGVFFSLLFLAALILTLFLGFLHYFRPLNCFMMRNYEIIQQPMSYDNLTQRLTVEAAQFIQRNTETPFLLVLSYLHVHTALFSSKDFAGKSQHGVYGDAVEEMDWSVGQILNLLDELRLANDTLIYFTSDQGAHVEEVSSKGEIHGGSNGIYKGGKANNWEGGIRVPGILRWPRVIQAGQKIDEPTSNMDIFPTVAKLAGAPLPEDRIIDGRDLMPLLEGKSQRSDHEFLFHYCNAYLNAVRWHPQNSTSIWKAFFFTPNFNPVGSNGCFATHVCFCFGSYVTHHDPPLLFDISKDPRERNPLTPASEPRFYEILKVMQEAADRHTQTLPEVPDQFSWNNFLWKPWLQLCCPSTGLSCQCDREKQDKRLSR

keloid fibroblast = conditions: in vitro, cited from earlier work
[7] = Group 2 (0.5 mg/day gel) on the seventh day; Group 1 (oral tamoxifen 20 mg/day) on the fifth day; cited from earlier work
[8] = tested on: p53(−) normal human mammary epithelial cells; conditions: cited from earlier work
TGF-β1 = conditions: cited from earlier work
[9] = 12 hr after cutaneous Z-[^3H]-4-hydroxy tamoxifen to the affected breast
[10] = 24 hr after cutaneous Z-[^3H]-4-hydroxy tamoxifen to the affected breast
[11] = 36 hr after cutaneous Z-[^3H]-4-hydroxy tamoxifen to the affected breast
[12] = Day 4 after cutaneous Z-[^3H]-4-hydroxy tamoxifen to the affected breast
[13] = Day 7 after cutaneous Z-[^3H]-4-hydroxy tamoxifen to the affected breast

CC/C(=C(/c1ccc(O)cc1)c1ccc(OCCN(C)C)cc1)c1ccccc1 (single isomer, unassigned) [E isomer]
percentage of isomer in breast tissue radioactivity ([1]; day 7 after cutaneous Z-[^3H]-4-hydroxy tamoxifen): 33%

CCC(=C(c1ccc(O)cc1)c1ccc(OCCN(C)C)cc1)c1ccccc1 [4-hydroxy tamoxifen, 1-[4-(2-N-dimethylaminoethoxy)phenyl]-1-(4-hydroxyphenyl)-2-phenylbut-1-ene]
metabolism in intracellular sites of breast tissue [2]: remained unmetabolized except for limited isomerization from the Z to the E form
metabolites in the urine [2]: progressive increase of metabolites, mostly N-desmethyl-4-hydroxy tamoxifen and bisphenol
radioactivity administered that showed in the blood [2]: 0.5%
share of radioactivity in blood [2]: 68%
subcellular distribution in breast tissue [2]: concentrated predominantly in the cytosolic and nuclear fractions of breast tissue
time of plateau of radioactivity in blood [2]: 4 to 6 days
AUC0-24 ([3]; 0.5 mg/day, 20 mg/100 g gel): 0.2563 ± 0.2053 ng·h/mL
Cav = AUC0-24/24 ([3]; 0.5 mg/day, 20 mg/100 g gel): 0.0107 ± 0.0085 ng/mL
Cmax ([3]; 0.5 mg/day, 20 mg/100 g gel): 0.017 ± 0.0085 ng/mL
tmax ([3]; 0.5 mg/day, 20 mg/100 g gel): 40 ± 81 h
AUC0-24 ([3]; 1 mg/day, 20 mg/100 g gel): 0.3009 ± 0.1908 ng·h/mL
Cav = AUC0-24/24 ([3]; 1 mg/day, 20 mg/100 g gel): 0.0125 ± 0.0079 ng/mL
Cmax ([3]; 1 mg/day, 20 mg/100 g gel): 0.021 ± 0.014 ng/mL
tmax ([3]; 1 mg/day, 20 mg/100 g gel): 24 ± 18 h
AUC0-24 ([3]; 1 mg/day, 57 mg/100 g gel): 0.619 ± 0.466 ng·h/mL
Cav = AUC0-24/24 ([3]; 1 mg/day, 57 mg/100 g gel): 0.0258 ± 0.0194 ng/mL
Cmax ([3]; 1 mg/day, 57 mg/100 g gel): 0.0351 ± 0.0224 ng/mL
tmax ([3]; 1 mg/day, 57 mg/100 g gel): 12.8 ± 14.9 h
t1/2 ([3]; 1 mg/day, 57 mg/100 g gel): (58-118) hr
AUC0-24 ([3]; 2 mg/day, 57 mg/100 g gel): 0.998 ± 0.653 ng·h/mL
Cav = AUC0-24/24 ([3]; 2 mg/day, 57 mg/100 g gel): 0.0416 ± 0.0272 ng/mL
Cmax ([3]; 2 mg/day, 57 mg/100 g gel): 0.0516 ± 0.0317 ng/mL
tmax ([3]; 2 mg/day, 57 mg/100 g gel): 11.8 ± 12.3 h
t1/2 ([3]; 2 mg/day, 57 mg/100 g gel): (49-101) hr
radioactivity in excised tissue and normal breast tissue surrounding the tumor [4]: contained radioactivity
systemic effects [5]: no detectable laboratory or clinical evidence of systemic effects
rat liver carcinogenicity ([6]; in vivo): not
inhibitory effect on estrone sulphatase activity (estrone sulphatase): significant inhibitory effect

CC(C)(c1ccc(O)cc1)c1ccc(O)cc1 [Bisphenol]
% Metabolites in Breast Tissue [1, 9]: 1%
share of radioactivity in blood [1]: 11%
% Metabolites in Breast Tissue [1, 10]: 2%
% Metabolites in Breast Tissue [1, 11]: 3%
% Metabolites in Breast Tissue [1, 12]: 8%
% Metabolites in Breast Tissue [1, 13]: 8%

CC/C(=C(\c1ccc(O)cc1)c1ccc(OCCNC)cc1)c1ccccc1 [N-Desmethyl-4-Hydroxy Tamoxifen]
% Metabolites in Breast Tissue [1, 9]: 2%
share of radioactivity in blood [1]: 18%
% Metabolites in Breast Tissue [1, 10]: 4%
% Metabolites in Breast Tissue [1, 11]: 14%
% Metabolites in Breast Tissue [1, 12]: 20%
% Metabolites in Breast Tissue [1, 13]: 16%

CC/C(=C(\c1ccc(O)cc1)c1ccc(OCCN(C)C)cc1)c1ccccc1 [Z-4-hydroxy tamoxifen]
percentage of isomer in breast tissue radioactivity [2]: 32%

CC/C(=C(\c1ccccc1)c1ccc(OCCN(C)C)cc1)c1ccccc1 [tamoxifen]
collagen production (keloid fibroblast; keloid fibroblasts): decreases collagen production
keloid fibroblast proliferation (keloid fibroblast): inhibits keloid fibroblast proliferation
side effects reported by one person of the group [7]: hot flashes and mild vaginitis
time of plateau of radioactivity in blood ([1]; cutaneous [^3H]-labeled drug): 2 days
retention in the breast ([1]; cutaneous [^3H]-labeled drug, 80 μCi): shorter and far weaker
initiation of apoptosis [8]: initiates apoptosis
TGF-β1 expression (TGF-β1): downregulating TGF-β1 expression
rat liver carcinogenicity [6]: potent rat liver carcinogen
inhibitory effect on estrone sulphatase activity (estrone sulphatase): little or no effect
